# In patent US7115665B1, “Inhibitors of endo-exonuclease activity for treating cancer” (Onocozyme Pharma, Inc., priority 2000, dated 2006):
# Read-outs that look alike come from different tables or passages of the source.
# Assays:
# [1] = test system: human endo-exonuclease; experiment: Endo-exonuclease nuclease activity inhibition assay; type: biochemical
# Protocol: The cultured cells were detached with trypsin-EDTA and the cell suspensions were centrifuged at 4° C. with a force of 700 g for 10 minutes. The cell pellets were washed twice with cold phosphate buffered saline (PBS). The cells were then resuspended and sonicated in 20 mM Tris-HCl, pH 7.5, containing 5 mM EDTA and 1 mM PMSF (buffer A). The resulting cell lysis suspensions were centrifuged at 4° C. at 10,000 g for 15 min. […] After washing extensively with buffer A, (i.e. until the A280 of the eluates were zero), the column was then eluted with buffer A containing 3.5 M MgCl2 to elute the endo-exonuclease. The eluted endo-exonuclease was dialyzed extensively against buffer A with at least two changes of buffer and one change of distilled water. The endo-exonuclease was then concentrated by lyophilization.
# One unit of activity was defined as the amount of deoxyribonuclease that renders 1 μg of DNA acid-soluble in 30 min at 37° C. For the inhibition assay with the drugs, the drugs were added to the endo-exonuclease prior to the start of the nuclease reaction.
# [2] = test system: H520 NSCLC cells; experiment: cells; details: read-out: LC50
# [3] = test system: H460 NSCLC cells; experiment: cells; details: read-out: LC50
# [4] = test system: H661 NSCLC cells; experiment: cells; details: read-out: LC50
# [5] = test system: MCF-7 breast cancer cells; details: read-out: LC50; MCF-7, 2 day exposure
# [6] = test system: HT29 colon cancer cells; details: read-out: LC50; HT29, 2 day exposure
# [7] = test system: MCF-7 breast cancer cells; experiment: cells; details: Homo sapiens, read-out: LC50
# [8] = test system: HT29 colon cancer cells; experiment: cells; details: Homo sapiens, read-out: LC50
# [9] = test system: MCF7 cells; experiment: Cell survival, clonogenic assay; type: cell-based, human; details: 1 week growth
# [10] = test system: HeLa cells; experiment: Cell survival, clonogenic assay; type: cell-based, human; details: 1 week growth
# [11] = test system: normal primary human cells (human primary fibroblast cells); experiment: Cell survival, clonogenic assay; type: cell-based; details: same conditions (0.1 mM to 1 mM)
# Description: These cells are normal human skin fibroblasts.
# [12] = test system: cancer cells; experiment: Efficiency of drug combination at killing cancer cells; type: cell-based; details: FIG. 4; efficiency from LC50 ratios
# [13] = test system: Lewis lung carcinoma (M47) primary tumour
# Protocol: Lewis Lung Carcinoma Cell Line and Cell Culture: The Lewis lung carcinoma clone, M47, is a metastatic model. […] For tumour induction, cells were washed three times with phosphate buffer solution. They were then re-suspended at a dilution of 1×10^6 cells/0.1 ml. Only cells where viability was >95% were used for in vivo studies.
# The mouse strain used in this study was C57BL/10. After one-week of acclimatization, cells were transplanted into the mice subcutaneously, as a suspension of tumour cells. All animals were inoculated at the same site.
# To measure the effect of drugs on the primary tumour, drug solutions were administered by intraperitoneal (ip) injection every two days. Animals were subjected, on a daily basis, to general examination. Tumour growth was monitored over time. To determine the effect of drugs on tumour metastasis, the tumours were allowed to reach a size of 0.5–1.0 cm^3. Mice were randomized into various groups and the drugs were then given by ip. At the end of each experiment, animals were sacrificed and autopsied. Tumours, organs or both were removed under sterile conditions. Tumours were weighed. Organs were examined for gross pathological changes and then fixed in formalin. Lungs were fixed in Bouin's fixative and lung surface metastases were counted using a stereomicroscope.
# The Lewis lung carcinoma clone, M47, with a high metastatic potential to the lung was used. […] The cell used was confirmed to be free of mycoplasma. Cells were maintained in RPMI-1640 medium supplemented with 10% fetal bovine serum and 1% penicillin-streptomycin, under 5% CO2. Cells were then propagated and stocks of the same passages were established and stored in liquid nitrogen. Oncozyme studies were done with the same stock of cells and same passage number.
# For tumour induction, cells were grown to 70% confluence in complete medium and then collected using trypsin-EDTA solution [0.05% trypsin 0.53 mM EDTA-4Na in HBSS without Ca++. Mg++, and NaHCO3; Celigro No. 25–052-Li]. Cells were then centrifuged and washed three times with phosphate buffer solution [D-PBS, Ca++ and Mg++free; Cellgro No. 21–031-LV], and resuspended at a dilution of 0.1 to 1×10^6 cells/0.1 ml. Viability was examined by trypan blue staining and only cells in which the viability was >95% were used for in vivo studies.
# The mouse strain used in this study is C57BL/10 from Charles River Inc. Animals were housed 5 per cage and were fed a diet of animal chow and water ad libitum. After one week acclimatization, LLC cells were transplanted subcutaneously, as a suspension of tumour cells [2−5×10^5 viable cells per 0.1 ml], in the axillary region of the right flank. All animals were inoculated at the same site. Animals were subjected, on a daily basis, to general examination. Tumour growth was monitored every second or third day using calipers. Parameters measured were: tumour measured along the longest axis (length) and the perpendicular shortest axis (width) and the relative tumour volume (in cm^3) was calculated by the formula: [length (cm)×(width cm)^2] (approximately 10–15 days), mice were randomized into one of the following groups:
# The conditions for this group were identical to the group used for the experiments on metastases with the exception that the primary tumour was not removed, and the animals were maintained until the tumours reached a large size that justified animal sacrifice, or the animals manifested a discomfort that justified their sacrifice (reduced mobility, severe respiratory symptoms, etc.).
# Control animals were given the same volume of saline solution [0.9% sodium chloride]. The dose of each drug was normalized to body weight per animal.
# (§1) The pentamidine and cisplatinum were injected by intraperitoneal injections. Adriamycin was injected intravenously.
# [14] = test system: Lewis lung carcinoma (M47) lung metastases; experiment: Lewis lung carcinoma lung metastases; type: in vivo, mouse (C57BL/10); details: for Number of Metastases/Lung: Blank 34 ± 3
# Description: All animals were inoculated at the same site.
# Tumour growth was monitored over time. […] Tumours, organs or both were removed under sterile conditions. Tumours were weighed.
# Animals were subjected to surgery to remove the primary tumour. The mice were lightly anesthetized with Forane. The skin overlying the tumour was cleaned with betadine and ethanols, in a laminar flow hood. A small skin incision (0.5–1 cm) was made using a sterile scalpel, and the tumour was carefully separated from the normal tissues (skin and muscle). Lewis Lung carcinoma cells (at early stage of growth; 1–3 weeks) are a well localized tumour and separation was easy to achieve without any significant damage to normal tissues. The tumour was removed, weighed and in some cases fixed for histopathology purposes. The wound was closed with surgical stainless steel clips (Autoclips; 9 mm; Clay Adams, Inc. Parsippany, N.J.). This site was further disinfected with betadine and the animal was housed as described earlier.
# In this group, mice were randomized after surgery into a group of 5 per cage. Cages were randomly assigned to specific experimental groups. The mice were then labelled by numbers using the “ear punching” method. Mice were checked on a daily basis to ensure the absence of infection. Animals with discomfort were sacrificed immediately. For each experiment, an additional extra spared group of control mice was included to determine the optimal timing for sacrifice in order to obtain a significant number of well localized lung metastases. This group was subjected to the same experimental procedure as group 1 with the exception of drug treatment.
# as §1
# At the end of each experiment (a total of 5–8 weeks), animals were sacrificed by dislocation and autopsied. Tumours, organs or both were removed under sterile conditions [using a laminar flow hood]. Tumours were weighed. […] Lungs were fixed in 10% Bouin's fixative diluted in a formalin solution, and lung surface metastases were counted using a stereomicroscope at 4× magnification or a magnifying-glass, and in some cases lungs were embedded in paraffin wax according to standard procedures. Embedded tissues were used to confirm metastases and further examine histopathological changes.
# [15] = mouse, in vivo, ip
# Protocol: (§2) A preliminary study was conducted on non-tumour bearing mice to examine the maximal tolerable doses of pentamidine that can be used for antitumour studies. Three intraperitoneal injections (day 1, day 3, and day 5) were tested of 25, 50, 100 and 200 mg/Kg of body weight respectively.
# [16] = test system: RIF-1 radiation-induced fibrosarcoma tumour; experiment: RIF tumour mouse model, polymer implant
# [17] = Toxicity / maximal tolerable dose in non-tumour bearing mice; details: 100 mg/Kg ip, days 1, 3, 5, FIG. 8
# Protocol: as §2
structure (smiles),measurement,setting,value
"CC(=O)NCC(=O)O.CC(=O)NCC(=O)O.N=C(N)c1ccc(N=NNc2ccc(C(=N)N)cc2)cc1 [Berenil, berenil]",Percent of Inhibition of endo-exonuclease activity,[1]; 2 mM,17%
same,CC50,"[2]; H520, 2 day exposure",> 4000 µM
same,CC50,"[3]; H460, 2 day exposure",> 4000 µM
same,CC50,"[4]; H661, 2 day exposure",> 4000 µM
same,CC50,[5],3000 µM
same,CC50,[6],> 4000 µM
"Cn1cc(NC(=O)c2cc(NC(=O)c3cc(NC=O)cn3C)cn2C)cc1C(=O)NCCC(=N)N [Distamycin A, distamycin A]",Percent of Inhibition of endo-exonuclease activity,[1]; 38 μM,30%
same,CC50,"[2]; H520, 2 day exposure",> 2000 µM
same,CC50,"[3]; H460, 2 day exposure",> 2000 µM
same,CC50,"[4]; H661, 2 day exposure",> 2000 µM
same,CC50,[5],1520 µM
same,CC50,[6],> 2000 µM
"COc1cc([C@@H]2c3cc4c(cc3[C@@H](O[C@@H]3O[C@@H]5CO[C@@H](C)O[C@H]5[C@H](O)[C@H]3O)[C@H]3COC(=O)[C@H]23)OCO4)cc(OC)c1O [Etoposide, etoposide]",Percent of Inhibition of endo-exonuclease activity,[1]; 50 μM,0%
same,CC50,"[2]; Homo sapiens, NCI-H520, 48 h",> 34000 µM
same,CC50,"[2]; Homo sapiens, NCI-H520, 96 h",> 34000 µM
same,CC50,"[3]; Homo sapiens, NCI-H460, 48 h",> 34000 µM
same,CC50,"[3]; Homo sapiens, NCI-H460, 96 h",> 34000 µM
same,CC50,"[4]; Homo sapiens, NCI-H661, 48 h",28000 µM
same,CC50,"[4]; Homo sapiens, NCI-H661, 96 h",15600 µM
same,CC50,"[7]; MCF7, 48 h",1000 µM
same,CC50,"[7]; MCF7, 96 h",1100 µM
same,CC50,"[8]; HT-29, 48 h",700 µM
same,CC50,"[8]; HT-29, 96 h",400 µM
"CO[C@@]12[C@H](COC(N)=O)C3=C(C(=O)C(C)=C(N)C3=O)N1C[C@@H]1N[C@@H]12 [Mitomycin C, mitomycin C]",Percent of Inhibition of endo-exonuclease activity,[1]; 50 μM,0%
"N=C(N)c1ccc(OCCCCCOc2ccc(C(=N)N)cc2)cc1 [Pentamidine, pentamidine]",Percent of Inhibition of endo-exonuclease activity,[1]; 25 μM,37%
same,Percent of Inhibition of endo-exonuclease activity,[1]; 50 μM,50%
same,Percent of Inhibition of endo-exonuclease activity,[1]; 100 μM,100%
same,Concentration at which compound began to kill the cancer cells,[9],0.1 mM
same,Lethal concentration,[9],1 mM
same,Concentration at which compound began to kill the cancer cells,[10],0.1 mM
same,Lethal concentration,[10],1 mM
same,Effect on survival of normal primary human cells,[11],no effect
same,CC50,"[2]; Homo sapiens, NCI-H520, 48 h",240 µM
same,CC50,"[2]; Homo sapiens, NCI-H520, 96 h",130 µM
same,CC50,"[3]; Homo sapiens, NCI-H460, 48 h",1340 µM
same,CC50,"[3]; Homo sapiens, NCI-H460, 96 h",160 µM
same,CC50,"[4]; Homo sapiens, NCI-H661, 48 h",150 µM
same,CC50,"[4]; Homo sapiens, NCI-H661, 96 h",70 µM
same,Efficiency at killing cancer cells of cisplatin combined with pentamidine versus cisplatin alone,[12],"up to 16,000 times"
same,Antitumour activity compared with cisplatin at 3–4 mg/Kg/ip,[13]; FIG. 13,as active as cisplatin
same,"Primary tumour effect, 50 mg/Kg pentamidine combined with adriamycin",[13]; FIG. 18,some beneficial effect
same,"Tumour response, combined with 3 mg/Kg cisplatin",[13]; FIGS. 14a and 14b,some animals showed a complete regression of the tumours
same,Inhibition of cancer growth compared with cisplatinum,"[13]; daily injection, FIG. 7",as effective in inhibiting the cancer growth as cisplatinum
same,Most active dose on growth of LLC primary tumour,"[13]; ip, p<0,01, FIGS. 10 to 15",50 mg/kg
same,Number of Metastases/Lung,[14]; 25 mg/kg,23 ± 3
same,Inhibition of lung metastases versus saline-treated control,"[14]; 50 mg/Kg, p<0.001, FIG. 16",more than 50%
same,Number of Metastases/Lung,[14]; 50 mg/kg,10 ± 2
same,"Effect on metastases, 50 mg/Kg/ip pentamidine with 4 mg/kg/ip cisplatin",[14]; FIG. 17,enhanced effect
same,"Effect on metastases, 50 mg/Kg/ip pentamidine with 5 mg/kg adriamycin/iv",[14]; FIG. 20,some beneficial effect
same,Effect on lung metastases,[14]; doses of 10–25 mg/Kg,no significant effect
same,Reduction of lung metastases,[14]; highest dosage tested,reduced metastases in a dose dependant manner by a factor of three
same,Most active dose on lung metastases,[14]; p<0.01,50 mg/kg
same,Highest tolerated dose,[15],50 mg/kg
same,CC50,"[7]; MCF7, 48 h",150 µM
same,CC50,"[7]; MCF7, 96 h",80 µM
same,CC50,"[8]; HT-29, 48 h",270 µM
same,CC50,"[8]; HT-29, 96 h",60 µM
same,Efficacy at slowing tumour growth,"[16]; biodegradeable polymer tumour implant, 100 mm^3 RIF tumours, FIG. 5",intermediate in its efficacy at slowing tumour growth between the saline control and 5-fluorouracil
same,Side effects in test mice,[16]; polymer implant plus radiation,no obvious signs of any side effects
same,"Tumour growth, combination with radiation","[16]; polymer implant plus radiation 24 hours after implant, FIG. 6",no significant tumour growth for a much longer period
same,Acute toxicity (death),[17],died because of acute toxicity
COc1cccc2c1C(=O)c1c(O)c3c(c(O)c1C2=O)C[C@@](O)(C(=O)CO)C[C@@H]3O[C@H]1C[C@H](N)[C@H](O)[C@H](C)O1 [adriamycin],Mortality,"[13]; 7.5 mg/Kg/iv, highest dose tested, FIG. 19",100%
same,Antitumour effect on primary tumour,[13]; minimal dose of 5 mg/Kg iv,potent antitumour effect
